Like-named read-outs stand apart in the source and are kept apart here.
Key:
[1] = tested on: immature (stage II/III) gametocytes, P. falciparum 3D7elo1-pfs16-CBG99; test: Luciferase reporter assay, immature gametocytes; assay type: cell-based, Plasmodium falciparum; conditions: 48 h; for inhibition at 5 µM: Plasmodium falciparum, read-out: Pf Early stage gametocyte %inhibition @ 5 µM
Description: (§1) P. falciparum drug sensitive NF54 (PfNF54) and drug-resistant Dd2 (PfDd2, chloroquine, pyrimethamine and mefloquine resistant) strains were cultured in vitro in human O^+/A^+ erythrocytes (5% hematocrit) in complete medium at 2–5% parasitemia, 37 °C, shaking at 60 rpm under hypoxic conditions (90% N2, 5% O2 and 5% CO2). Immature and mature gametocytes were produced from P. falciparum 3D7elo1-pfs16-CBG99 (kind gift from Pietro Alano, ISS, Italy) ^[1] as described^[2,3] by simultaneously applying nutrient starvation and decreasing hematocrit to induce >97% ring-stage ABS parasites (0.5% parasitemia, 6% hematocrit). Gametocytogenesis was followed with daily media changes (including glucose) and ABS parasites removed with 50 mM N-acetylglucosamine (day 1–4 for stage II/III; days 3–7 for stage IV/V).
(§2) All inhibitors were dissolved in dimethyl sulfoxide (DMSO). Antiplasmodium activity of selected anti-cancer inhibitors was determined on P. falciparum NF54 and Dd2 strains, measuring SYBR Green I fluorescence (485 nm excitation, 538 nm emission) as an indicator of proliferation^[4]. Ring-stage ABS parasites (1% parasitemia, 1% hematocrit) were treated with compounds for 96 h at 37 °C with chloroquine disulphate (0.5 μM) as positive drug control. The activity of the inhibitors was tested against immature (>95% stage II/III) and late-stage (>90% stage IV/V) gametocytes using a luciferase reporter assay on 3D7elo1-pfs16-CBG99 ^[1]. […] Luciferase activity was determined using a non-lysing D-luciferin substrate (1 mM in 0.1 M citrate buffer, pH 5.5, 100 μL) and bioluminescence was detected with a GloMax® - Multi Detection System with Instinct® software.

[2] = tested on: late-stage (stage IV/V) gametocytes, P. falciparum 3D7elo1-pfs16-CBG99; test: Luciferase reporter assay, late-stage gametocytes; assay type: cell-based; conditions: Plasmodium falciparum, 48 h, read-out: Pf Late stage gametocyte %inhibition @ 5 µM
Description: as §1, §2

[3] = Cytotoxicity counter-screening (MTT), HepG2; conditions: human, HepG2 CC50, 48 h, MTT
Description: (§3) HepG2 and CHO cells were maintained at 37 °C, under a humidified atmosphere of 5% CO2, in DMEM high glucose media (Gibco) supplemented with 10% heat-inactivated FBS and 1% (v/v) Penicillin-Streptomycin antibiotics. […] The supernatant was discarded, and the cell pellet was resuspended in 1 mL DMEM media for cell counting by Trypan Blue. To determine the toxicity, cells were resuspended and seeded at a concentration of 1x10^4 cells/well in a 96-well plate and incubated for 24 h^[9,10]. Cells were treated in duplicate with a 10-fold serial dilution starting at 100 ug/mL of inhibitor in new media. After 48 h incubation, the viable cells were measured using the MTT tetrazolium reduction assay, where sterile 25 µL of a 5 mg/mL MTT was added to each well and incubated for 4 h before the […] formazan crystals were dissolved with 100 µL DMSO (Merck) per well. The absorbance, a measure of intracellular reduction of MTT, was measured at 540 nm (Multiskan GO). Emetine (50 µM) was included as a positive drug control, and the background was subtracted from all data before being normalised to the untreated^[9,10].

[4] = Cytotoxicity counter-screening (MTT), CHO; conditions: Chinese hamster
Description: as §3

recombinant PfPKG = target: T1, recombinant PfPKG (Plasmodium falciparum, UniProt Q8I719); test: ADP-Glo kinase assay, PfPKG; assay type: biochemical
T1 construct: Full-length PfPKG (PF3D7_1436600); His tag (N); made in house; host or cells: E. coli (first-named host, read as 'respectively')
T1 sequence (Q8I719 whole entry): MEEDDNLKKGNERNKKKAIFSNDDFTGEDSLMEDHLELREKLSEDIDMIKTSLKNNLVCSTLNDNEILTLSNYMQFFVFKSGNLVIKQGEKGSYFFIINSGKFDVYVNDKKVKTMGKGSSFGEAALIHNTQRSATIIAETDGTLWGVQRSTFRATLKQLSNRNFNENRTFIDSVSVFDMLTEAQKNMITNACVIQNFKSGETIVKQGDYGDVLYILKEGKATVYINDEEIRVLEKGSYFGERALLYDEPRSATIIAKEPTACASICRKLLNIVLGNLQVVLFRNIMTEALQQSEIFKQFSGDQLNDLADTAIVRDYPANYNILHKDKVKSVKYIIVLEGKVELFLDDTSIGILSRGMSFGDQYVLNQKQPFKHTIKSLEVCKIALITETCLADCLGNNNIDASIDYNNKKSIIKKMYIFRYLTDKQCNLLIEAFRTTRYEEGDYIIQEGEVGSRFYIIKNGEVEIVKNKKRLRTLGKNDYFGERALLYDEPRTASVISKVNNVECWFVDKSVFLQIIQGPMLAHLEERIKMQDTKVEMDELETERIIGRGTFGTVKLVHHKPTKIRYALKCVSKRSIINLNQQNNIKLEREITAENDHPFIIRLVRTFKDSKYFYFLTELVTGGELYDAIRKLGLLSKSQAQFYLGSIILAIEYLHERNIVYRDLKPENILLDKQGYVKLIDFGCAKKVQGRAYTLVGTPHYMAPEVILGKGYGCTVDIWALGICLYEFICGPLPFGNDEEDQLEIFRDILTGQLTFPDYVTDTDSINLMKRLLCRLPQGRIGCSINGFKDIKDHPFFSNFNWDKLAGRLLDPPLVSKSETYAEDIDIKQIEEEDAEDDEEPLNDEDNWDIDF
Excerpt: (§4) Full-length PfPKG (PF3D7_1436600)^[19] and PvPI4Kβ (PVX_098050)^[20] recombinant proteins were expressed in E. coli and baculovirus-insect cell expression systems. The kinase domain of PfCLK3 (PF3D7_1114700, Gln317 to Ser694) was expressed in E. coli Rosetta™(DE3)pLysS cells (kind gift from Rafael M. Couñago, CQMED, University of Campinas). Briefly, the N-terminal His-tagged kinases were purified using immobilized metal affinity chromatography, followed by anion exchange chromatography in the case of PfPKG, and size exclusion chromatography. Dose-response kinase inhibition assays were carried out using the ADP-Glo kinase assay kit^[21], with 1 nM PfPKG, 10 μM ATP, 20 μM […]-NH2, 1% (v/v) DMSO and inhibitor in PKG assay buffer (25 mM HEPES pH 7.4, 0.1 mg/mL BSA, 0.01% (v/v) Triton-X 100, 20 mM MgCl2, 2 mM DTT, 10 μM cGMP); or 6 nM PvPI4Kβ, 10 μM ATP, 0.1 mg/ml L-alpha-phosphatidylinositol, 1% (v/v) DMSO and inhibitor in PI4Kβ assay buffer (25 mM HEPES pH 7.4, 100 mM NaCl, 3 mM MgCl2, 1 mM DTT, 0.025 mg/ml BSA, 0.2% (v/v) Triton-X-100); or 15 nM PfCLK3, 10 μM ATP, 20 μM myelin basic protein, 1% (v/v) DMSO and inhibitor in assay buffer (50 mM HEPES pH 7.4, 0.1 mg/mL BSA, 0.01% (v/v) Triton-X 100, 20 mM MgCl2, 2 mM DTT). […] Mean IC50 values were calculated from two independent experiments, each with technical duplicates.

[5] = target: T2, recombinant PfCLK3 kinase domain (Plasmodium falciparum, UniProt Q8IIL5); test: ADP-Glo kinase assay, PfCLK3; assay type: biochemical
T2 sequence (Q8IIL5 317-694): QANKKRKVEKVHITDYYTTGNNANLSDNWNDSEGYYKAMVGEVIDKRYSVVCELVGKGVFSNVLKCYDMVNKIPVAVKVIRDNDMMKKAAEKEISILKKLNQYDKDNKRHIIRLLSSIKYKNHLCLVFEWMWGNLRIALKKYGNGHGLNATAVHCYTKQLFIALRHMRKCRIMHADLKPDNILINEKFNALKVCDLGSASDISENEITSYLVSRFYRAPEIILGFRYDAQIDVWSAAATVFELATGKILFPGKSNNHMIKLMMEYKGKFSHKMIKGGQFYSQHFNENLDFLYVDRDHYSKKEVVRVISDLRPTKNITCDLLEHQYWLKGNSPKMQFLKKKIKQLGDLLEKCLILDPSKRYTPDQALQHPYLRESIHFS
Excerpt: as §4

recombinant PvPI4Kβ = recombinant PvPI4Kβ (Plasmodium vivax, UniProt A5KB26); test: ADP-Glo kinase assay, PvPI4Kβ; assay type: biochemical
recombinant PvPI4Kβ, sequence (A5KB26 1-1525): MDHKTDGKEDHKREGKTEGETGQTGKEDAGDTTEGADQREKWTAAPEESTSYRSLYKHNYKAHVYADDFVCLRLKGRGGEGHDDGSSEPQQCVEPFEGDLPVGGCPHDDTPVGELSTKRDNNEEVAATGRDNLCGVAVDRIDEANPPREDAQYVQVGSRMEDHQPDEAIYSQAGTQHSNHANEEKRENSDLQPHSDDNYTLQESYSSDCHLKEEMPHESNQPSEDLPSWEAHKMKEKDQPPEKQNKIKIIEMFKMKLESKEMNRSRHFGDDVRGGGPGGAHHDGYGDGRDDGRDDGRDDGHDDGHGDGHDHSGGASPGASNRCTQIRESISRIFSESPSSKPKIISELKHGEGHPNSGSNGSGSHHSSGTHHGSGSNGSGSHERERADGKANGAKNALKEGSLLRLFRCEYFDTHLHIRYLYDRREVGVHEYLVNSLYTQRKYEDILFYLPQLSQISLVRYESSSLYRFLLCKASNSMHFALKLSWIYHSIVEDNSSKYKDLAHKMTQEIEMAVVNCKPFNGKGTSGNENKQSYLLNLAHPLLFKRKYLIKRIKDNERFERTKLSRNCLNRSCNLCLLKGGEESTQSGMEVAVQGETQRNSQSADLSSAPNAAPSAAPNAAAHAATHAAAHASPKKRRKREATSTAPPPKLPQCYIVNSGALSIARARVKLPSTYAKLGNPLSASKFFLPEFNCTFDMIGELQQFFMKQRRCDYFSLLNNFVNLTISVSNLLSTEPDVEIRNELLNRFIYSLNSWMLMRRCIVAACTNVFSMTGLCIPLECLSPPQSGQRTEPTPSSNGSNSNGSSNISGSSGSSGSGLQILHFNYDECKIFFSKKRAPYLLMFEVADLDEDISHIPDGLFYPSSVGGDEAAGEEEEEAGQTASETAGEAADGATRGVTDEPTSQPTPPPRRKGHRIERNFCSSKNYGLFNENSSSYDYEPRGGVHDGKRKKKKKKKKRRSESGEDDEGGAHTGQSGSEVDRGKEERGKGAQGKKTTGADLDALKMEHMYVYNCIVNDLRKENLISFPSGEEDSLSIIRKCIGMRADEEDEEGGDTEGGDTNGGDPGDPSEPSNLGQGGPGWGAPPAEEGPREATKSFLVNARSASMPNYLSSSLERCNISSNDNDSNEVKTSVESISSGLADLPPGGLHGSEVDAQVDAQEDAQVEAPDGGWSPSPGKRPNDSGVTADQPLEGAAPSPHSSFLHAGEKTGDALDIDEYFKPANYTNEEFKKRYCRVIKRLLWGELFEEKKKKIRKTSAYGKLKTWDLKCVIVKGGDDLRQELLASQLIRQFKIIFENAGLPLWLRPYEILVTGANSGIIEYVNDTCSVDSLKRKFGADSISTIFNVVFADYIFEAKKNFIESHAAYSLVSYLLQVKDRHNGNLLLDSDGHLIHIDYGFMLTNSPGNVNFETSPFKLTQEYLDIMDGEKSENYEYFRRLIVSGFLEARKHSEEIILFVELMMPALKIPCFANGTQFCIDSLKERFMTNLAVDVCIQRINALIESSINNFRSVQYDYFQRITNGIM
Excerpt: as §4

[6] = 10 µM ATP, read-out: IC50 PfCLK3
[7] = 10 µM ATP, read-out: IC50 PvPI4Kβ

SMILES | Pf Early stage gametocyte %inhibition @ 5 µM [1] | inhibition at 5 µM [1] | inhibition at 5 µM [2] | CC50 at 48 h [3] | CC50 at 48 h [4] | IC50 (recombinant PfPKG) | IC50 [5, 6] | IC50 (recombinant PvPI4Kβ; [7]) | CC50 at 48 h ([3]; HepG2 cells) | CC50 at 48 h ([4]; CHO cells) | IC50 (recombinant PfPKG; 10 µM ATP, read-out: IC50 PfPKG) | IC50 [5] | IC50 (recombinant PvPI4Kβ)
CCN1CCN(C(=O)Cc2ccc(Nc3ncc(F)c(Nc4ccc(C(=O)Nc5ccccc5Cl)cc4)n3)cc2)CC1 [AAi I, Aurora A Inhibitor I] | 73,0 ± 3,1% | ~70% | 48.7% | 5.1 µM | 3.6 µM | 1.7 µM | 2.4 µM | > 10 µM |  |  |  |  | 
O=C(Nc1c[nH]nc1-c1nc2ccc(CN3CCOCC3)cc2[nH]1)NC1CC1 [AT83, AT9283] |  | 53.5% | 48.9% | 12.9 ± 4.5 µM | 4.5 ± 2.1 µM | 9.3 µM | 0.1 µM | > 10 µM |  |  |  |  | 
CCN(CCO)CCCOc1ccc2c(Nc3cc(CC(=O)Nc4cccc(F)c4)n[nH]3)ncnc2c1 [AZD-1152, AZD-1152-HQPA] |  | 31.1% | 38.2% | > 15 µM | > 15 µM | > 10 µM | > 10 µM | > 10 µM |  |  |  |  | 
O=C(Nc1cccc(Nc2nccc(Nc3cccc(C(F)(F)F)c3)n2)c1)C1CC1 [Aki III, Aurora kinase inhibitor III] |  | 27.7% | 3.5% |  |  |  |  |  | 18.4 µM | 2.4 µM | 2.7 µM | > 10 µM | > 10 µM
COc1cc(N2CCC(N3CCN(C)CC3)CC2)ccc1Nc1ncc(Cl)c(Nc2ccccc2S(=O)(=O)C(C)C)n1 [TAE684, NVP-TAE684] | 65,4 ± 1,7% | ~70% | 50.8% | 8.8 µM | 2 µM | 2 µM | > 10 µM | > 10 µM |  |  |  |  | 
COc1cc2c(Nc3ccc(NC(=O)c4ccccc4)cc3)ncnc2cc1OCCCN1CCOCC1 [ZM-39, ZM-447439] |  | 32.7% | 21.5% |  |  | > 10 µM | > 10 µM | > 10 µM | > 15 µM | > 15 µM |  |  | 

Reference: PMC12707362, “Targeting Aurora Kinases as Essential Cell‐Cycle Regulators to Deliver Multi‐Stage Antimalarials Against Plasmodium Falciparum” (Angewandte Chemie (International Ed. in English), 2025)
